# Measured values published in US6875759B1, “Substituted guanidines and the use thereof” (Kadmus Pharmaceuticals, priority 1999, dated 2005).
# Where two headings read alike, the source gives them in different places.
# Columns and labels:
# caspase-3 (CPP-32) = assay: Caspase-3 activation, western blot of cytosolic fractions; assay type: cell-based, human; details: breast cancer cells (HS578-T); 25 μM; 0-240 minutes
# Protocol: FIG. 6 is an immunoblot illustrating the activation of caspase 3 in human breast cancer cells (HS578-T) exposed to 25 μM of the compound of Example 8. Cells were exposed to the compound for 0, 30, 60, 90, 150, and 240 minutes of treatment with peak activity occurring 90 minutes after drug addition.
# When cells are induced to undergo apoptosis the cell death effector, caspase-3 (CPP-32), is cleaved and activated by proteolytic enzymes.
# [1] = test system: human pancreatic cancer (HS766T) cells; assay type: in vivo; details: daily i.p. for five days
# Description: FIG. 2B is a bar graph which depicts the effect of the compound of Example 8 on human pancreatic cancer in BDF/1 mice using the sub-renal capsule assay.
# (§1) Human cancer cells can be grown in the sub-renal capsule of immuno-competent mice where, for a limited period of time, they escape detection by the mouse's immune system. Thus, the sub-renal capsule assay provides a convenient system to study the effect of drugs on the growth of tumor cells in vivo (Bogden, A. E., et al., Exp. Cell Biol. 47:281 (1979)). Briefly, female BDF mice weighing 18-20g were anesthetized, the left kidney exteriorized and a small nick was made in the kidney capsule for implantation of tumor cells. Approximately 1×10^6 human prostate (DU14) or pancreatic cancer (HS766T) cells were prepared as a fibrinogen-jelled pellet (Stratton, J. A., et al., Gynecol. Oncol. 19:336 (1984); Stratton, J. A., et al., Gynecol. Oncol. 30:416 (1988)) and implanted beneath the renal capsule. […] One day after the final injection, the animals were killed and the tumor volume was measured. Tumor growth was determined by subtracting the initial size of the implant from the size of the implant size following treatment (Stratton, J. A., et al., Gynecol Oncol. 19:336 (1984); Stratton, J. A., et al., Gynecol. Oncol. 30:416 (1988)).
# [2] = test system: hormone-independent prostate cancer cell line DU145; assay: In vitro cytotoxicity, MTS (CellTiter 96 Aqueous Proliferation Assay), prostate cancer cells; assay type: cell-based, human
# Protocol: FIG. 1 is a graph which compares the effects of the compound of Example 8 on normal human endothelial cells (AH-9) and human prostate cancer cells (DU145). Cells were exposed to the compound for seven days at the concentrations indicated. Cytotoxicity was assessed using the MTS assay.
# In these experiments, cells were seeded at 400 cells per well 24 hours prior to addition of the test compound. Cells were grown at 37° C. in a humidified atmosphere of 95% air, 5% CO2 for 7 days with daily media changes. Cytotoxicity was assessed using the CellTiter 96 Aqueous Proliferation Assay (Promega, Madison, Wis.).
# In a separate experiment (FIG. 1), normal human endothelial cells (AH-9) and human prostate cancer cells (DU145) were exposed to increasing concentrations of the compound of Example 8 for seven days.
# [3] = test system: HS578T breast cancer cells; assay: DNA fragmentation, TUNEL assay by flow cytometry; assay type: cell-based, human; details: 12.5 or 25 μM for 24 hours
# Protocol: FIGS. 4A-4C illustrate the effects of compound of Example 8 on HS578-T breast carcinoma cells. Cells were exposed to the compound at zero μM (FIG. 4A), 12.5 μM (FIG. 4B) or 25 μM (FIG. 4C) for 24 hours, and the degree of DNA fragmentation measured by flow cytometry using the TUNEL assay.
# The TUNEL assay examines DNA fragmentation using flow cytometry to detect DNA that is labeled with fluorescein dUTP compared to the total nuclear DNA content of the cell as measured using propidium iodide. Human HS578T breast cancer cells were treated with either 12.5 or 25 μM of the compound of Example 8 for 24 hours. As cells undergo apoptosis, DNA fragmentation occurs in a relatively intact nucleus, giving rise to a higher fluorescent intensity (x-axis) with stable staining by propidium iodide (y-axis).
# [4] = test system: human prostate (DU145) cancer cells; assay: Mitochondrial membrane depolarization, JC-1 flow cytometry, prostate cancer cells; assay type: cell-based; details: 25 μM, five hours following drug exposure
# Protocol: FIGS. 5D-5F illustrate the effects of compound of Example 8 on human prostate cancer cells (DU145). Mitochondrial membrane depolarization was assessed by flow cytometry as measured by the fluorescence of cation, JC-1. Cells were exposed to 25 μM of the compound and fluorescence measured at: 0 hours (FIG. 5D), 2.5 hours (FIG. 5E) and 4.5 hours (FIG. 5F).
# Mitochondrial membrane depolarization is an early event in apoptosis. […] These early changes in mitochondrial function can be detected using a fluorescent cation, JC-1, that emits a red color when sequestered in the mitochondria of healthy cells, or a green color when localized to the cytoplasm.
# Human breast (HS578-T) and prostate (DU145) cancer cells were exposed to 25 μM of the compound of Example 8 for varying lengths of times. Both cell lines lost the capacity to sequester JC-1 in the mitochondrial compartment as indicated by a time-dependent increase in green vs. red fluorescence (FIGS. 5A-5F). In an attempt to better quantitate the results of these experiments, the scans were divided into quadrants. At time 0, greater than 90% of the dye was localized in the mitochondria in both breast and prostate cancer cells. By five hours following drug exposure, the mitochondria from the prostate and breast cells contained only 33% and 22% of the dye, respectively.
# [5] = Mouse formalin test pain model, late phase; assay type: in vivo
# Protocol: The formalin test was conducted using standard procedures (Hunskaar et al., J. Neurosci. Meth. 14:69-76 (1985). Mice (male CF-1, 20-25 g) were placed in Plexiglass jars for at least 1 hr to accommodate to the environment
# The animals received either test drug at 5-50 mg/kg p.o. or the appropriate volume of vehicle (normal saline). Thirty minutes after p.o. dosing mice were injected with formalin (20 μl of 2.5% formaldehyde solution in saline) into the dorsal surface of the right hind paw.
# All experiments were done in a blinded manner. The late phase of the formalin response was measured as licking/biting from 10-50 minutes after formalin injection. Differences between groups were analyzed by one-way analysis of variance (ANOVA), A P value ≦0.05 was considered significant. Reduction in the time spent licking/biting in the late phase of the formalin response is considered an indication of a reduction in chronic pain.
# [6] = test system: human prostate (DU14) cancer cells; assay type: in vivo; details: daily i.p. for five days
# Description: FIG. 2A is a bar graph which depicts the effect of the compound of Example 8 (1-[N,N′-di-p-tolyl)amidino]-4-(trans-1′-cinnamyl)piperizine) on human prostate cancer in BDF/1 mice using the sub-renal capsule assay.
# as §1
compound,measurement,setting,value
"Cc1ccc(N=C(Nc2ccc(C)cc2)N2CCN(C/C=C/c3ccccc3)CC2)cc1 [Example 8, 1-[(N,N′-Di-p-tolyl)amidino]-(trans-1′-cinnamyl)piperizine]",processed (activated) caspase-3 (in words),caspase-3 (CPP-32),time-dependent increase in processed caspase-3
same,inhibition of tumor growth,[1]; pancreatic cancer cell line in mouse sub-renal capsule,greater than 95%
same,effect on tumor growth (in words),"[1]; pancreatic implant, FIG. 2B",dose-dependent and highly significant inhibition of tumor growth
same,EC50,"[2]; 7 days exposure, MTS, dose causing death to 50% of cells, read-out: Cell Survival ED 50 Prostate",1300 nM
same,EC50,"[2]; separate experiment (FIG. 1), seven days, read-out: EC50 cytotoxic activity",3400 nM
same,DNA fragmentation (TUNEL),[3],pattern of DNA fragmentation characteristic of apoptosis
same,JC-1 dye contained in mitochondria,[4],33%
same,late phase pain versus control vehicle (post-hoc Newman-Kuels test),[5]; 30 mg/kg orally,different from control vehicle at P<0.05
same,late phase pain versus control vehicle (post-hoc Newman-Kuels test),[5]; 50 mg/kg orally,different from control vehicle at P<0.05
same,effect on general behavior of the animals,"[5]; at the doses effective in the formalin test, p.o.",did not affect the general behavior
same,"time spent licking, late phase of formalin response (in words)","[5]; oral administration, 5-50 mg/kg, male CF-1 mice",dose-dependent reduction in the time spent licking
same,inhibition of tumor growth,[6]; prostate cancer cell line in mouse sub-renal capsule,greater than 95%
same,effect on tumor growth (in words),"[6]; prostate implant, FIG. 2A",dose-dependent and highly significant inhibition of tumor growth
